Reference: patent publication US20250127759A1, “METHODS AND DOSING REGIMENS COMPRISING A CDK2 INHIBITOR FOR THE TREATMENT OF CANCER” (PFIZER INC., priority 2021, published 2025)
Marks after values point to notes of the source that are not given here.

Assays:
T-47D Cells = assay: Combination cell proliferation assay, T47D; assay type: cell-based, human
Experimental: (§1) The combination effects of PF-07104091 with palbociclib were evaluated in a cell proliferation assay with MCF7 and T47D BC cell lines. […] Drug combinations were analyzed using the Dose Equivalence Principle, and the Loewe Volume score. When modeling synergy using the Dose Equivalence Principle, the Loewe Volume score for the combination compounds should be greater than the compound self-cross controls, and the Combination Index score for the combination compounds should be less than compound self-cross controls. […] Furthermore, the isobolograms set to an anti-proliferation threshold at 70% confirm a synergistic response.

T47D = assay: In vivo efficacy, T47D breast cancer model; set-up: species or system mice; conditions: Day 41, 10 mg/kg BID PO
Experimental: (§2) The T47D model was established by implanting passage 3 tumor fragments into recipient mice. To establish the T47D donor mice, tumor cells (5×10^6 cell/mouse with 50% Cultrex® Basement Membrane Matrix) were subcutaneously implanted in female NSG mice. […] All mice received treatment continuously until Day 41. TGI was assessed on Day 41 post first dose.

HCC1428 = assay: In vivo efficacy, HCC1428 breast cancer model; set-up: species or system mice; conditions: Day 42, 10 mg/kg BID PO, 10 mg/kg
Experimental: as §2, with “HCC1428” for “T47D”, “4” for “3”, “42.” for “41.”, “42” for “41”

MCF7 Cells = assay: Combination cell proliferation assay, MCF7; assay type: cell-based, human
Experimental: as §1

NCI-H526 Model = assay: In vivo efficacy, NCI-H526 small cell lung cancer model; set-up: species or system mice
Experimental: Female NSG (Jackson Lab) or Nu/nu (CRL) were subcutaneously implanted with tumor cells or fragments (8 mm^3 to 27 mm^3) into the dorsal region. For the MCF7 study, mice were supplemented with estrogen (sc implanted, 17β-estradiol, 0.36 mg, 90-day release pellet, Innovative Research of America, cat no. NE-121).
To establish the NCI-H526 model, tumor cells (4×10^6 cells/mouse with 50% Cultrex® Basement Membrane Matrix) were subcutaneously implanted in female Nu/nu mice. […] PF-07104091, Palbociclib at 10 mg/kg and CDK 2/4/6 inhibitor were administered (p.o.) BID (7 hr apart). TGI was assessed on Day 15 post first dose (or Day 20 post tumor cell implant).

ST941PBR PDX = assay: In vivo efficacy, palbociclib-resistant ST941PBR PDX model; conditions: Day 28, 10 mg/kg BID PO
Experimental: Female NSG mice (Jackson Lab) were subcutaneously implanted with fragment (27 mm^3 to 64 mm^3 size) into the dorsal region. All mice for T47D, HCC1428 and ST941 PBR studies were supplemented with 8.5 μg/mL estradiol water (β-Estradiol Sigma-Aldrich, cat #E2758-5G) and gave ad libitum till end of study. For the in vivo efficacy studies, tumor volume and body weights were measured twice a week. Tumor volume was calculated using the [(Length×Width×Width)/2)] formula. TGI was calculated as 100*(1−ΔT/ΔC). The ΔC (ΔT) was obtained by subtracting the mean tumor burden in the vehicle (treated) group on the first day of treatment (Day 0) from the mean tumor burden in vehicle (treated) group on the assessment day. Statistical analysis was performed using ANCOVA when the mean tumor volume in vehicle treated mice reached tumor cutoff size.
The ST941 PBR palbociclib resistant model was obtained from XENOSTART™ LLC, San Antonio, Texas. We established model in house by continuous treatment of the ST941 PBR tumor bearing mice with PD-0332991 at 50 mg/kg, PO QD plus fulvestrant at 10 mg/kg, SC twice in the first week, then weekly thereafter. To propagate donors for the TGI study, tumors were transplanted to recipient mice. One week after the re-implantation, the recipient mice received continuous treatment with palbociclib plus fulvestrant (dosing schedule described above). After 1 to 2 serial in vivo propagation with the same treatment regimen, the resistant tumors in the range of 700 to 800 mm^3 were re-implanted for a study expansion. The remaining tumor fragments were viably frozen for future use.
The live donor mice were established by implanting ST941 PBR (p11) tumor fragments. Once reaching a range of 700 to 800 mm^3, the donor tumors were subsequently transplanted into secondary recipient mice for a study expansion. To maintain the resistant clones, the ST941 PBR tumor bearing mice were treated with PD-0332991 at 50 mg/kg, PO. QD plus fulvestrant at 10 mg/kg, SC twice in the first week, then weekly afterwards for 10 weeks. […] TGI was assessed on Day 28 post first dose.

CC(=O)c1c(C)c2cnc(Nc3ccc(N4CCNCC4)cn3)nc2n(C2CCCC2)c1=O [Palbociclib, palbociclib, reference compound]
Loewe Volume (T-47D Cells): −0.25
Best CI (T-47D Cells; Best CI Level 70): 0.96
TGI % (T47D): 72* %
TGI % (HCC1428): 44* %
TGI % (HCC1428; listed as palbociclib): 44%
Loewe Volume (MCF7 Cells): −0.16
Best CI (MCF7 Cells; Best CI Level 70): 0.94
TGI % (NCI-H526 Model; 10 mg/kg BID PO, Day 15): 33%
TGI % (NCI-H526 Model; 10 mg/kg BID PO, Day 15, listed as palbociclib): 33%
TGI % (NCI-H526 Model; 50 mg/kg SID PO, Day 15): 22%
TGI % (NCI-H526 Model; 50 mg/kg SID PO, Day 15, listed as palbociclib): 22%
TGI % (ST941PBR PDX): 15%
